Assay results reported in paper PMC9161374 (Science Translational Medicine, 2022).
Where “and” joins values, the source holds several entries; their conditions need not be identical. Equal values may be shown once.

Experiments:
[1] = system: SARS-CoV-2 (Delta, B.1.617.2); test: microbe, parasite or virus in culture; assay type: cell-based; conditions: for % Inhibition: delta
[2] = system: SARS-CoV-2 (B.1) in Huh7 cells; test: Anti-SARS-CoV-2 activity in Huh7 cells (viral yield by qRT-PCR); assay type: cell-based; conditions: B.1, MOI 0.05, 48 h
[3] = CCK-8 cell viability assay; assay type: cell-based, African green monkey; conditions: African green monkey; Vero E6 cells, 48 h, CCK8
How it was run: (§1)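 Vero E6 cells, 20,000/well, exposed to compound at 0–200 μM (0, 0.01, 0.1, 1, 5, 10, 50, 75, 100, 200 μM) for 48 h; viability read by CCK-8 and expressed as percentage versus drug concentration, mean ± SD.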

[4] = system: Vero E6 cells; test: CCK-8 cell viability assay; assay type: cell-based, African green monkey; conditions: individual replicate values, Fig.S4
How it was run: as §1

[5] = system: SARS-CoV-2 replicon system (pBAC-SARS-CoV-2-Replicon-Luc); test: microbe, parasite or virus in culture; assay type: cell-based; conditions: Severe acute respiratory syndrome coronavirus 2, HEK-293T, 60 h
[6] = system: SARS-CoV-2 (Beta, B.1.351); test: microbe, parasite or virus in culture; assay type: cell-based; conditions: for % Inhibition: beta
[7] = system: SARS-CoV-2 (B.1); test: Anti-SARS-CoV-2 activity in Vero E6 cells (viral yield by qRT-PCR); assay type: cell-based

CCC(CC)C(=O)OC[C@H]1O[C@@](C#N)(c2ccc3c(N)ncnn23)[C@H](O)[C@@H]1O [ATV011]
EC50 ([1]; Severe acute respiratory syndrome coronavirus 2, Vero C1008, 48 h, read-out: EC50 in Vero E6 cells, SARS-CoV-2 (Delta, B.1.617.2)): 0.408 µM | inhibition at 0.01 µM ([1]; Severe acute respiratory syndrome coronavirus 2, Vero C1008, delta, 0.01 uM, Vero E6, replicates): 0% | inhibition at 0.1 µM ([1]; Severe acute respiratory syndrome coronavirus 2, Vero C1008, delta, 0.1 uM, Vero E6, replicates): 0% | inhibition at 0.25 µM ([1]; Severe acute respiratory syndrome coronavirus 2, Vero C1008, delta, 0.25 uM, Vero E6, replicates): 18.8% | inhibition at 0.5 µM ([1]; Severe acute respiratory syndrome coronavirus 2, Vero C1008, delta, 0.5 uM, Vero E6, replicates): 74.2% | inhibition at 1 µM ([1]; Severe acute respiratory syndrome coronavirus 2, Vero C1008, delta, 1 uM, Vero E6, replicates): 83.5% | inhibition at 2 µM ([1]; Severe acute respiratory syndrome coronavirus 2, Vero C1008, delta, 2 uM, Vero E6, replicates): 94.4% | inhibition at 5 µM ([1]; Severe acute respiratory syndrome coronavirus 2, Vero C1008, delta, 5 uM, Vero E6, replicates): 94.6% | inhibition at 10 µM ([1]; Severe acute respiratory syndrome coronavirus 2, Vero C1008, delta, 10 uM, Vero E6, replicates): 99.9% | inhibition at 50 µM ([1]; Severe acute respiratory syndrome coronavirus 2, Vero C1008, delta, 50 uM, Vero E6, replicates): 100% | EC90 ([1]; Severe acute respiratory syndrome coronavirus 2, Vero C1008, read-out: EC90 (Confidence 95%), Vero-E6, Delta B.1.617.2): 0.842 µM | % Inhibition ([1]; 0.01 uM, Vero E6, replicates): 0% | % Inhibition ([1]; 0.1 uM, Vero E6, replicates): 0% | % Inhibition ([1]; 0.25 uM, Vero E6, replicates): 20.35% | % Inhibition ([1]; 0.5 uM, Vero E6, replicates): 62.851% | % Inhibition ([1]; 1 uM, Vero E6, replicates): 82.2323% | % Inhibition ([1]; 2 uM, Vero E6, replicates): 91.97% | % Inhibition ([1]; 5 uM, Vero E6, replicates): 91.6601% | % Inhibition ([1]; 10 uM, Vero E6, replicates): 99.4778% | % Inhibition ([1]; 50 uM, Vero E6, replicates): 99.7579% | EC50 ([2]; Severe acute respiratory syndrome coronavirus 2, Huh-7, read-out: EC50 (Confidence 95%) in Huh7 cells): 0.836 µM | EC90 ([2]; Severe acute respiratory syndrome coronavirus 2, Huh-7, read-out: EC90 (Confidence 95%) in Huh7 cells): 1.01 µM | CC50 at 48 h [3]: > 50 µM | cell viability (% of control) ([4]; 0.01 μM compound, 0.01 µM): 118.751 % of control and 91.986 % of control and 93.878 % of control | cell viability (% of control) ([4]; 0.1 μM compound, 0.1 µM): 121.196 % of control and 124.104 % of control and 115.797 % of control | cell viability (% of control) ([4]; 1 μM compound, 1 µM): 117.043 % of control and 115.382 % of control and 124.473 % of control | cell viability (% of control) ([4]; 2 μM compound, 2 µM): 120.919 % of control and 113.536 % of control and 114.367 % of control | cell viability (% of control) ([4]; 5 μM compound, 5 µM): 138.178 % of control and 143.9 % of control and 139.562 % of control | cell viability (% of control) ([4]; 10 μM compound, 10 µM): 141.085 % of control and 129.595 % of control and 122.535 % of control | cell viability (% of control) ([4]; 50 μM compound, 50 µM): 76.4283 % of control and 65.5331 % of control and 77.184 % of control | EC50 ([5]; read-out: EC50 (Confidence 95%), replicon): 0.32 µM | EC90 ([5]; read-out: EC90 (Confidence 95%), replicon): 0.384 µM | EC50 ([6]; Severe acute respiratory syndrome coronavirus 2, Vero C1008, 48 h, read-out: EC50 in Vero E6 cells, SARS-CoV-2 (Beta, B.1.351)): 2.3 µM | inhibition at 0.01 µM ([6]; Severe acute respiratory syndrome coronavirus 2, Vero C1008, beta, 0.01 uM, Vero E6, replicates): 0% | inhibition at 0.1 µM ([6]; Severe acute respiratory syndrome coronavirus 2, Vero C1008, beta, 0.1 uM, Vero E6, replicates): 0% | inhibition at 0.25 µM ([6]; Severe acute respiratory syndrome coronavirus 2, Vero C1008, beta, 0.25 uM, Vero E6, replicates): 0% | inhibition at 0.5 µM ([6]; Severe acute respiratory syndrome coronavirus 2, Vero C1008, beta, 0.5 uM, Vero E6, replicates): 0% | inhibition at 1 µM ([6]; Severe acute respiratory syndrome coronavirus 2, Vero C1008, beta, 1 uM, Vero E6, replicates): 0% | inhibition at 2 µM ([6]; Severe acute respiratory syndrome coronavirus 2, Vero C1008, beta, 2 uM, Vero E6, replicates): 29.7% | inhibition at 5 µM ([6]; Severe acute respiratory syndrome coronavirus 2, Vero C1008, beta, 5 uM, Vero E6, replicates): 99.6% | inhibition at 10 µM ([6]; Severe acute respiratory syndrome coronavirus 2, Vero C1008, beta, 10 uM, Vero E6, replicates): 99.9% | inhibition at 50 µM ([6]; Severe acute respiratory syndrome coronavirus 2, Vero C1008, beta, 50 uM, Vero E6, replicates): 99.9% | EC90 ([6]; Severe acute respiratory syndrome coronavirus 2, Vero C1008, read-out: EC90 (Confidence 95%), Vero-E6, Beta B.1.351): 2.95 µM | % Inhibition ([6]; 0.01 uM, Vero E6, replicates): 0% | % Inhibition ([6]; 0.1 uM, Vero E6, replicates): 0% | % Inhibition ([6]; 0.25 uM, Vero E6, replicates): 0% | % Inhibition ([6]; 0.5 uM, Vero E6, replicates): 0% | % Inhibition ([6]; 1 uM, Vero E6, replicates): 0% | % Inhibition ([6]; 2 uM, Vero E6, replicates): 22.548% | % Inhibition ([6]; 5 uM, Vero E6, replicates): 99.5042% | % Inhibition ([6]; 10 uM, Vero E6, replicates): 99.9468% | % Inhibition ([6]; 50 uM, Vero E6, replicates): 99.9524% | % Inhibition ([7]; 0.1 μM, replicates, sheet Fig.S3): 0% | % Inhibition ([7]; 0.5 μM, replicates, sheet Fig.S3): 0% | % Inhibition ([7]; 1 μM, replicates, sheet Fig.S3): 78.517% | % Inhibition ([7]; 2 μM, replicates, sheet Fig.S3): 79.6525% | % Inhibition ([7]; 5 μM, replicates, sheet Fig.S3): 91.2053% | % Inhibition ([7]; 10 μM, replicates, sheet Fig.S3): 90.9393% | % Inhibition ([7]; B.1, 0.01 uM, Vero E6, replicates): 0% | % Inhibition ([7]; B.1, 0.1 uM, Vero E6, replicates): 0% | % Inhibition ([7]; B.1, 0.25 uM, Vero E6, replicates): 0% | % Inhibition ([7]; B.1, 0.5 uM, Vero E6, replicates): 0% | % Inhibition ([7]; B.1, 1 uM, Vero E6, replicates): 0% | % Inhibition ([7]; B.1, 2 uM, Vero E6, replicates, 2 µM): 3.841% and 72.4491% | % Inhibition ([7]; B.1, 5 uM, Vero E6, replicates, 5 µM): 99.7181% | % Inhibition ([7]; B.1, 10 uM, Vero E6, replicates, 10 µM): 99.9819% | % Inhibition ([7]; B.1, 50 uM, Vero E6, replicates, 50 µM): 99.9874% | inhibition at 0.1 µM ([7]; Severe acute respiratory syndrome coronavirus 2, Vero C1008, 0.1 μM, replicates, sheet Fig.S3): 0% | inhibition at 0.5 µM ([7]; Severe acute respiratory syndrome coronavirus 2, Vero C1008, 0.5 μM, replicates, sheet Fig.S3): 0% | inhibition at 1 µM ([7]; Severe acute respiratory syndrome coronavirus 2, Vero C1008, 1 μM, replicates, sheet Fig.S3): 77.4% | inhibition at 2 µM ([7]; Severe acute respiratory syndrome coronavirus 2, Vero C1008, 2 μM, replicates, sheet Fig.S3): 78% | inhibition at 5 µM ([7]; Severe acute respiratory syndrome coronavirus 2, Vero C1008, 5 μM, replicates, sheet Fig.S3): 93.5% | inhibition at 10 µM ([7]; Severe acute respiratory syndrome coronavirus 2, Vero C1008, 10 μM, replicates, sheet Fig.S3): 93.2% | inhibition at 0.01 µM ([7]; Severe acute respiratory syndrome coronavirus 2, Vero C1008, B.1, 0.01 uM, Vero E6, replicates): 0% | inhibition at 0.1 µM ([7]; Severe acute respiratory syndrome coronavirus 2, Vero C1008, B.1, 0.1 uM, Vero E6, replicates): 0% | inhibition at 0.25 µM ([7]; Severe acute respiratory syndrome coronavirus 2, Vero C1008, B.1, 0.25 uM, Vero E6, replicates): 0% | inhibition at 0.5 µM ([7]; Severe acute respiratory syndrome coronavirus 2, Vero C1008, B.1, 0.5 uM, Vero E6, replicates): 0% | inhibition at 1 µM ([7]; Severe acute respiratory syndrome coronavirus 2, Vero C1008, B.1, 1 uM, Vero E6, replicates): 0% | inhibition at 5 µM ([7]; Severe acute respiratory syndrome coronavirus 2, Vero C1008, B.1, 5 uM, Vero E6, replicates): 99.5% | inhibition at 10 µM ([7]; Severe acute respiratory syndrome coronavirus 2, Vero C1008, B.1, 10 uM, Vero E6, replicates): 99.9% | inhibition at 50 µM ([7]; Severe acute respiratory syndrome coronavirus 2, Vero C1008, B.1, 50 uM, Vero E6, replicates): 99.9% | EC90 ([7]; Severe acute respiratory syndrome coronavirus 2, Vero C1008, read-out: EC90 (Confidence 95%)): 2.64 µM | EC50 ([7]; Severe acute respiratory syndrome coronavirus 2, Vero C1008, MOI 0.05, 48 h): 2.12 µM
